Measurements published in BindingDB's records for doi:10.7270/Q2G44NRK (Burnham Center For Chemical Genomics, 2010).

Target: Mu-type opioid receptor (Homo sapiens, UniProt P35372)
Experiment: MOR antagonists, SAR follow-up, image-based (AID 2420)

Sequence of Mu-type opioid receptor (P35372 whole entry): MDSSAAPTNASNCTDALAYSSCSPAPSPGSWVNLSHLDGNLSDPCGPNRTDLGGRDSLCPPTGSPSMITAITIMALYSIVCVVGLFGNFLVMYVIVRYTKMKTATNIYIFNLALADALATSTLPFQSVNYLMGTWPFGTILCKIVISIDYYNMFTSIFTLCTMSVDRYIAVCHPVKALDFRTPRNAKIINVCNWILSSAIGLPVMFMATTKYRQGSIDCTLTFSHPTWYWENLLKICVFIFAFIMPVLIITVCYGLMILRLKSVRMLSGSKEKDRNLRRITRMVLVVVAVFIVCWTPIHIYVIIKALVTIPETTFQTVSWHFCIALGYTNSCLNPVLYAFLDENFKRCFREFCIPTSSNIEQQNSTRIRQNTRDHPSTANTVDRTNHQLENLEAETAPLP

SMILES	IC50
CCC(N=Nc1ccnc2cc(Cl)ccc12)c1ccc(O)cc1 (configuration not stated) [4-[1-[2-(7-chloroquinolin-4-yl)hydrazinyl]propylidene]cyclohexa-2,5-dien-1-one]	> 32 µM
Oc1ccc(CN=Nc2ccnc3cc(Cl)ccc23)cc1O [(4Z)-4-[[2-(7-chloroquinolin-4-yl)hydrazinyl]methylidene]-2-hydroxycyclohexa-2,5-dien-1-one]	> 32 µM
